Where two headings read alike, the source gives them in different places.
Type: in vitro ADME
Settings: for Nail (summary) / Receptor (summary) / Total nail (summary): 10 mM
Procedure: The donor solution in experiment 2 consisted of: 0.36% (10 mM) amorolfine HCl in an aqueous solution containing 50 mM NaCl and 0.4% Tween 80. The experiment was performed at pH 3.9 without further adjustment.
The donor solution in experiment 3 consisted of: 0.36% (10 mM) amorolfine HCl in an 40:60 (w:w) Tris buffer:ethanol. The Tris buffer contained 50 mM Tris and 50 mM NaCl at pH 7.4. The pH of the buffer:ethanol solution was ˜7.5. After addition of the drug the pH was ˜5.5.
The donor solution in experiments 4 and 5 consisted of: 1% (28 mM) amorolfine HCl in an 40:60 (w:w) Tris buffer:ethanol. The Tris buffer contained 50 mM Tris and 50 mM NaCl at pH 7.4. The pH of the buffer:ethanol solution was ˜7.5. After addition of the drug the pH was ˜4.7.
Receptor solution: pH 7.4 PBS containing 0.25% Tween 80 (same as Expt. 2).
Diffusion cells: 15 mm diameter Franz diffusion cells were used. The “nail assemblage” was placed in […] the donor and receptor chambers.
Nail device: A nail was glued […] two silicone rings with an internal orifice of 5 mm diameter.
The thickness of the nails was measured with a micrometer. Before hydration nail thickness in the periphery was measured in three places. The central part was not measured at this time to avoid any risk of breaking the nail. The nails were soaked overnight in 50 mM NaCl solution. Because of the increased flexibility of the nail after soaking, it was then possible to measure the thickness in the central part, upper part and lateral corner of the nail (Table 1):
Testing for leaks and iontophoretic circuit: Before starting the iontophoretic experiment, the absence of leaks was tested for each cell. The donor and receptor chambers were filled with donor (without drug) and receptor buffer, respectively, and a 0.1 mA current was passed. In the presence of leaks, the resistance of the circuit is low and the voltage needed to drive the current is very small (˜1V).
The voltages observed at the start of current passage decreased rapidly to settle at (˜30V after approximately 20 minutes.
Once the stability of the circuit with the three cells was assured, the donor compartment was filled with the drug solution and the current re-started.
The intensity of current was 0.1 mA, equivalent to 0.51 mA/cm^2 (area exposed=0.196 cm^2).
One sample was taken after 18 hours of iontophoresis for experiment 2 and 20 hours for experiments 3 and 4. The receptor was then refilled and a passive post-iontophoretic period of 4 hours elapsed before a second sample was obtained.
After recovery of the donor solution, the anode chamber was rinsed twice with ethanol to clean residual solution from the surface of the nail. Then, the nail was cut out of the silicone ring, weighed, dissolved in Soluene®, and assayed for radioactivity.
Experiment 5 is a passive control.

CCC(C)(C)c1ccc(CC(C)CN2C[C@@H](C)O[C@@H](C)C2)cc1 (stereo partly drawn) [Amorolfine, cis-4-[3-[4-(1,1-dimethylpropyl)phenyl]-2-methylpropyl]-2,6-dimethylmorpholine]
effect of iontophoresis on drug delivery into and through the nail: enhances drug delivery into and trough the nail
flux of amorolfine, comparison of experiments: higher flux
Nail (summary) (18 h, pH 3.9): 5.1 ± 4.3 nmol/mg
Receptor (summary) (18 h, pH 3.9): 2.4 ± 0.5 nmol
Total nail (summary) (18 h, pH 3.9): 38 ± 13 nmol
Nail (summary) (20 h): 3.2 ± 0.6 nmol/mg
Receptor (summary) (20 h): 1.7 ± 0.7 nmol
Total nail (summary) (20 h): 28 ± 3.6 nmol

— patent US20100291012A1, “ADMINISTRATION OF AMOROLFINE BY IONTOPHORESIS FOR TREATING NAIL DISEASES” (GALDERMA S.A., priority 2008, published 2010)
